These results are taken from ChEMBL document CHEMBL1122656, “Synthesis and antiviral evaluation of carbocyclic analogues of ribofuranosides of 2-amino-6-substituted-purines and of 2-amino-6-substituted-8-azapurines” (1984).

Holding throughout (format): functional
Experiment [1] relates to HEp-2. In words: In vitro inhibition of cytopathogenicity induced by HF strain of Herpes Simplex Virus (HSV-1) replicating in human epidermoid carcinoma no.2 (H.Ep-2) cells.
Experiment [2] concerns Mus musculus. Nature of the experiment: In vivo efficacy against L1210 leukemic cells, inoculated intraperitoneally in mice at schedule - q.d. 1-9. Dose 100 mg/kg. The following applies: route intraperitoneal.
Experiment [3] in a line: Cytotoxicity to cancer cells (KB cells) in culture was determined and the effective dose that causes 50 % cytotoxicity was reported. The following applies: Homo sapiens, Cancer cell lines; read-out: ED50 (the source's name).
Experiment [4] deals with HEp-2. Nature of the experiment: In vitro inhibition of cytopathogenicity induced by Lederle Chorioallantoic strain of vaccinia virus replicating in human epidermoid carcinoma.
For experiment [5], the system named is Mus musculus. In words: In vivo efficacy against L1210 leukemic cells, inoculated intraperitoneally in mice at schedule - q.d. 1-9. Dose 200 mg/kg.*-toxic. The settings on record: route intraperitoneal.
Experiment [6] has as its system Mus musculus. Nature of the experiment: In vivo efficacy against L1210 leukemic cells, inoculated intraperitoneally in mice at schedule - q.d. 1-9. Dose 100 mg/kg*-toxic. The settings on record: route intraperitoneal.
The subject of experiment [7] is Mus musculus. In words: In vivo efficacy against L1210 leukemic cells, inoculated intraperitoneally in mice at schedule - q.d. 1-9. Dose 50 mg/kg. The settings on record: route intraperitoneal.
The subject of experiment [8] is Mus musculus. Nature of the experiment: In vivo efficacy against L1210 leukemic cells, inoculated intraperitoneally in mice at schedule - q.d. 1-9. Dose 25 mg/kg. The following applies: route intraperitoneal.
Experiment [9] deals with Mus musculus. Nature of the experiment: In vivo efficacy against L1210 leukemic cells, inoculated intraperitoneally in mice at schedule - day 1. Dose 400 mg/kg. The following applies: route intraperitoneal.
In experiment [10] the test system is HEp-2. Nature of the experiment: In vitro inhibition of cytopathogenicity induced by Lederle Chorioallantoic strain of vaccinia virus replicating in human epidermoid carcinoma no.2 (H.Ep-2) cells. (Protection from cytopathic effect is a common read-out in antiviral testing.)
For experiment [11], the system named is Mus musculus. In words: In vivo efficacy against L1210 leukemic cells, inoculated intraperitoneally in mice at schedule - q.d. 1-9. Dose 400 mg/kg. The settings on record: route intraperitoneal.
In experiment [12] the test system is Mus musculus. Nature of the experiment: In vivo efficacy against L1210 leukemic cells, inoculated intraperitoneally in mice at schedule - q.d. 1. Dose 75 mg/kg*-Diiference in weight change(T-C)by day 5 was -5.6g at 150 mg/kg &[…] at 75 mg/kg.
Experiment [13] has as its system Mus musculus. Nature of the experiment: In vivo efficacy against L1210 leukemic cells, inoculated intraperitoneally in mice at schedule - q.d. 1,5,9. Dose 38 mg/kg. The following applies: route intraperitoneal.
Experiment [14] deals with Mus musculus. Nature of the experiment: In vivo efficacy against L1210 leukemic cells, inoculated intraperitoneally in mice at schedule - q.d. 1-9. Dose 38 mg/kg*-toxic. The following applies: route intraperitoneal.
For experiment [15], the system named is Mus musculus. Nature of the experiment: In vivo efficacy against L1210 leukemic cells, inoculated intraperitoneally in mice at schedule - q.d. 1,5,9. Dose 75 mg/kg*-Diiference in weight change(T-C)by day 5 was -5.6g at 150 mg/kg &[…] at 75 mg/kg.
In experiment [16] the test system is Mus musculus. Nature of the experiment: In vivo efficacy against L1210 leukemic cells, inoculated intraperitoneally in mice at schedule - q.d. 1 Dose 150 mg/kg.*-Diiference in weight change(T-C)by day 5 was -5.6g at 150 mg/kg &[…] at 75 mg/kg.
Experiment [17] deals with Mus musculus. In words: In vivo efficacy against L1210 leukemic cells, inoculated intraperitoneally in mice at schedule - q.d. 1,5,9. Dose 19 mg/kg. The following applies: route intraperitoneal.
The subject of experiment [18] is Mus musculus. Nature of the experiment: In vivo efficacy against L1210 leukemic cells, inoculated intraperitoneally in mice at schedule - q.d. 1-9. Dose 9 mg/kg. The following applies: route intraperitoneal.
In experiment [19] the test system is Mus musculus. Nature of the experiment: In vivo efficacy against L1210 leukemic cells, inoculated intraperitoneally in mice at schedule - q.d. 1-9. Dose 19 mg/kg*-toxic. The following applies: route intraperitoneal.

Converted amounts (≈) assume the structure as drawn.

Usually T/C stands for the ratio of treated to control. `CSc1nc(N)nc2c1nnn2C1CC(CO)C(O)C1O` (stereo not given) yielded a Virus rating in the experiment on HEp-2 [1] of 0 VR. Further, the T/C in the experiment with Mus musculus [2] was determined as 94%. In [3], the EC50 was over 100 µg/mL.

For `Nc1nc(N)c2ncn(C3CC(CO)C(O)C3O)c2n1` (stereo not given), the MIC against HEp-2 [4] was found to be 2.3 µg/mL (≈ 8.21 µM); in the experiment with HEp-2 [1], 0.3 µg/mL (≈ 1.07 µM). The Virus rating came to 3.8 VR in the experiment with HEp-2 [4] and 4.6 VR in the experiment with HEp-2 [1]. Also, the T/C in the experiment with Mus musculus [5] is given as 67%; with Mus musculus [6] it was 70%; with Mus musculus [7] it was 89%; with Mus musculus [8] it was 102%. The EC50 in [3] was 19 µg/mL (≈ 67.8 µM).

On to `Nc1nc(Cl)c2nnn(C3CC(CO)C(O)C3O)c2n1` (stereo not given), for which the values for the Virus rating in the experiment with HEp-2 [4] and in the experiment on HEp-2 [1] were 0.6 VR and 0.9 VR, respectively. The T/C with Mus musculus [9] is recorded as 111%. Besides, in the experiment on HEp-2 [1], the MIC worked out at 81 µg/mL (≈ 269 µM). Moreover, in experiment [3], the EC50 came to 8 µg/mL (≈ 26.6 µM).

As to `Nc1nc(Cl)c2ncn(C3CC(CO)C(O)C3O)c2n1` (stereo not given), the T/C with Mus musculus [5] turned out to be 67%; in the experiment with Mus musculus [6], 85%; in the experiment with Mus musculus [7], 101%; with Mus musculus [9], 104%. Also, the values for the MIC against HEp-2 [1] and against HEp-2 [10] were 10 µg/mL (≈ 33.4 µM) and 20 µg/mL (≈ 66.7 µM), respectively. Also, the Virus rating came out at 1.7 VR in the experiment on HEp-2 [1] and 1.2 VR in the experiment with HEp-2 [10]. In addition, the EC50 in experiment [3] is over 100 µg/mL.

The compound `Nc1nc(N)c2nnn(C3CC(CO)C(O)C3O)c2n1` (stereo not given) had a T/C in the experiment on Mus musculus [9] of 97%. Further, in the experiment with HEp-2 [1], the MIC stood at 100 µg/mL (≈ 356 µM) and the Virus rating amounted to 1.4 VR. Moreover, the EC50 in experiment [3] is over 100 µg/mL.

On to `Nc1nc(O)c2nnn(C3CC(CO)C(O)C3O)c2n1` (stereo not given), for which the T/C in the experiment with Mus musculus [9] came to 109%. The compound further had a Virus rating in the experiment on HEp-2 [1] of 0 VR. In addition, the EC50 in experiment [3] is over 100 µg/mL.

In the experiment with HEp-2 [1], `CNc1nc(N)nc2c1ncn2C1CC(CO)C(O)C1O` (stereo not given) registered an MIC of 320 µg/mL (≈ 1090 µM) and a Virus rating of 1.3 VR. For the same compound, the EC50 in experiment [3] was determined as 18 µg/mL (≈ 61.2 µM).

Compound `Nc1nc(S)c2ncn(C3CC(CO)C(O)C3O)c2n1` (stereo not given) came in with a Virus rating with HEp-2 [1] of 0 VR. This compound showed a T/C in the experiment with Mus musculus [11] of 99%. Besides, the EC50 in experiment [3] was 50 µg/mL (≈ 168 µM).

Consider `CSc1nc(N)nc2c1ncn2C1CC(CO)C(O)C1O` (stereo not given), for which the Virus rating with HEp-2 [1] was 0.1 VR. This compound also yielded a T/C with Mus musculus [2] of 108%. The EC50 in experiment [3] was over 100 µg/mL.

With `Nc1nc(O)c2ncn(C3CC(CO)C(O)C3O)c2n1` (stereo not given), the T/C came to 88% in the experiment on Mus musculus [12]; 92% with Mus musculus [13]; 71% in the experiment on Mus musculus [14]; 70% in the experiment on Mus musculus [15]; 75% with Mus musculus [16]; 94% with Mus musculus [17]. The T/C in the experiment with Mus musculus [18] is reported as 101%; in the experiment on Mus musculus [19] it was 83%. The Virus rating in the experiment on HEp-2 [4] and in the experiment with HEp-2 [1] was 0 VR each time. In [3], the EC50 was over 100 µg/mL.

In the experiment on HEp-2 [1], `Nc1ncnc2c1ncn2[C@@H]1O[C@H](CO)[C@@H](O)[C@@H]1O` [VIDARABINE] had an MIC of 10 µg/mL (≈ 37.4 µM) and a Virus rating of 2.2 VR.
